Experimental data reported in ChEMBL document CHEMBL1156011, “Identification of orally bioavailable, non-amidine inhibitors of Urokinase Plasminogen Activator (uPA)” (Bioorg Med Chem Lett, 2009).

What was measured:
[1] = molecular target: Urokinase-type plasminogen activator (Homo sapiens, UniProt P00749); assay: Inhibition of uPA
[2] = molecular target: Tissue-type plasminogen activator (Homo sapiens, UniProt P00750); assay: Inhibition of tPA
Plasminogen = Plasminogen (Homo sapiens, UniProt P00747); assay: Inhibition of plasmin
Chain of Plasminogen (P00747 97-580 limits assumed): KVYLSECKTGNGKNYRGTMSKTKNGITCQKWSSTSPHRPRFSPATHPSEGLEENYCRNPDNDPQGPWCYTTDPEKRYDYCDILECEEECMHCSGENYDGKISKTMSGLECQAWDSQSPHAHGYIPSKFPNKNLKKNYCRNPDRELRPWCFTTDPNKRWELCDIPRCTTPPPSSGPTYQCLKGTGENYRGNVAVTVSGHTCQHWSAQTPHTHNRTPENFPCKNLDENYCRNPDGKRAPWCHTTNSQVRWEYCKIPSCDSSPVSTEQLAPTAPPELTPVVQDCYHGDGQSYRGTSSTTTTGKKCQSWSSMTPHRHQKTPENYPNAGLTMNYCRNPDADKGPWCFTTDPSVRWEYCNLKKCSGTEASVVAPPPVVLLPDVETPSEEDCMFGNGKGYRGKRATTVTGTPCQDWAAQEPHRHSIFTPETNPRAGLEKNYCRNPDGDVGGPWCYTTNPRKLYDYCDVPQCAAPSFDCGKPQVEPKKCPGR
Chain of Plasminogen (P00747 581-810 limits assumed): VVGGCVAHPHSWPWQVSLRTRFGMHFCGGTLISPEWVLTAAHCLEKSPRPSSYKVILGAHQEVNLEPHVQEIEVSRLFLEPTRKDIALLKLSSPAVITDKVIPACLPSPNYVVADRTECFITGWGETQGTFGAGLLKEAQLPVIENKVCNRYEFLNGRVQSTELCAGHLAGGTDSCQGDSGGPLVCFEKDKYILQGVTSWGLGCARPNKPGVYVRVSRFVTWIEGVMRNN

[3] = Oral bioavailability in rat; type: ADME, organism-based; settings: in vivo
[4] = Half life in rat; type: ADME, organism-based; settings: in vivo
[5] = Cmax in rat; type: ADME, organism-based; settings: in vivo
[6] = Volume of distribution in rat; type: ADME, organism-based; settings: in vivo
[7] = Clearance in rat; type: ADME, organism-based; settings: in vivo

Chain of Tissue-type plasminogen activator (P00750 whole entry): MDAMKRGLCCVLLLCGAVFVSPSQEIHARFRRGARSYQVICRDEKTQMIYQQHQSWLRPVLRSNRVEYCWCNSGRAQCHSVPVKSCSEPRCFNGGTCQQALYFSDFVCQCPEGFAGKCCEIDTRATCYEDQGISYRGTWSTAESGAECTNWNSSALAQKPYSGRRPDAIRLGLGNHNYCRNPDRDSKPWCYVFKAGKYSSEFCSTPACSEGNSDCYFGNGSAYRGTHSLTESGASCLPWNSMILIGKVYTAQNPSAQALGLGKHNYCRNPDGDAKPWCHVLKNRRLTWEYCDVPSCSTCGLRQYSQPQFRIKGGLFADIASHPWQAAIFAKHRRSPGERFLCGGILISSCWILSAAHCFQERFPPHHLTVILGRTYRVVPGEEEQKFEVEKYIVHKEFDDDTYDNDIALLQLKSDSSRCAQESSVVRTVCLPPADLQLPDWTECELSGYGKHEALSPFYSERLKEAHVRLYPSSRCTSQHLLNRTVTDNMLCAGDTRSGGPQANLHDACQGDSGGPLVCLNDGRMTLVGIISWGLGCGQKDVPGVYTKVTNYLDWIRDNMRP

IC50 [1] [µM]	IC50 [2] [µM]	IC50 (Plasminogen) [µM]	Compound	also measured
> 30			CN(C)c1ccc(C(=O)O)c(Oc2nc(Oc3cccc(-c4ccc(CN)cc4)c3)c(F)cc2F)c1	
0.13	16	3.6	CNc1c(F)c(Oc2cccc(-c3cccc(CN)c3)c2)nc(Oc2cc(N(C)C)ccc2C(=O)O)c1F	
> 30			CN(C)Cc1cccc(-c2cccc(Oc3nc(Oc4cc(N(C)C)ccc4C(=O)O)c(F)cc3F)c2)c1	
0.089	15	11	Cc1ccc(C(=O)O)c(Oc2nc(Oc3cc(-c4cccc(CN)c4)ccc3N)c(F)cc2F)c1	
0.22	> 30	9.4	COc1ccc(C(=O)O)c(Oc2nc(Oc3cccc(-c4cccc(CN)c4)c3)c(F)cc2F)c1	
8.1			NCc1cccc(-c2cccc(Oc3nc(Oc4ccccc4CC(=O)O)c(F)cc3F)c2)c1	
> 30			CNCc1cccc(-c2cccc(Oc3nc(Oc4cc(N(C)C)ccc4C(=O)O)c(F)cc3F)c2)c1	
2.7		2.7	Cc1ccc(C(=O)O)c(Oc2nc(Oc3cc(CN)cc(-c4cccc(CN)c4)c3)c(F)cc2F)c1	
0.098	3.9	2.1	Cc1c(F)c(Oc2cccc(-c3cccc(C(=N)N)c3)c2)nc(Oc2cc(N(C)C)ccc2C(=O)O)c1F	
0.1	18	6.5	CN(C)c1ccc(C(=O)O)c(Oc2nc(Oc3cccc(-c4cccc(CN)c4)c3)c(F)cc2F)c1	bioavailability [3]: 9%; half-life [4]: 30 min; Cmax [5]: 33 ng/mL; Vd [6]: 1.15 L/kg; clearance [7]: 26 mL/min/kg
13			Cc1ccc(-n2cnnn2)c(Oc2nc(Oc3cccc(-c4cccc(CN)c4)c3)c(F)cc2F)c1	
0.023	14	5.5	Cc1ccc(C(=O)O)c(Oc2nc(Oc3cc(O)cc(-c4cccc(CN)c4)c3)c(F)cc2F)c1	
20			NCc1cccc(-c2cccc(Oc3nc(Oc4cccc(C(=O)O)c4)c(F)cc3F)c2)c1	
> 30			NCc1cccc(-c2cccc(Oc3nc(Oc4ccc(C(=O)O)cc4)c(F)cc3F)c2)c1	
0.54		8.6	Cc1cccc(C(=O)O)c1Oc1nc(Oc2cccc(-c3cccc(CN)c3)c2)c(F)cc1F	
0.1	28	6.3	CN(C)CCN(C)c1c(F)c(Oc2cccc(-c3cccc(CN)c3)c2)nc(Oc2cc(N(C)C)ccc2C(=O)O)c1F	
0.065	11	4.4	CN(C)c1ccc(C(=O)O)c(Oc2nc(Oc3cccc(-c4cccc(CN)c4)c3)c(F)c(N3CCNCC3)c2F)c1	
> 30			Cc1ccc(C(=O)O)c(Oc2nc(Oc3ccc(N)c(-c4cccc(CN)c4)c3)c(F)cc2F)c1	
0.84	> 30	21	NCc1cccc(-c2cccc(Oc3nc(Oc4ccccc4C(=O)O)c(F)cc3F)c2)c1	
	5.2	1.9	CN(C)c1ccc(C(=O)O)c(Oc2nc(Oc3cccc(-c4cccc(CN)c4)c3)c(F)c(N3CCC(N(C)C)C3)c2F)c1 (stereo unspecified)	bioavailability [3]: 0%; half-life [4]: 276 min; Vd [6]: 1 L/kg; clearance [7]: 5 mL/min/kg
26			Cc1cccc(Oc2nc(Oc3cccc(-c4cccc(CN)c4)c3)c(F)cc2F)c1C(=O)O	
3.5			Cc1ccc(Oc2nc(Oc3cccc(-c4cccc(CN)c4)c3)c(F)cc2F)c(C(=O)O)c1	
0.24	22	5	Cc1ccc(C(=O)O)c(Oc2nc(Oc3cccc(-c4cccc(CN)c4)c3)c(F)cc2F)c1	bioavailability [3]: 37%; half-life [4]: 30 min; Cmax [5]: 220 ng/mL; Vd [6]: 0.7 L/kg; clearance [7]: 54 mL/min/kg
0.68		2.8	CC(C)c1ccc(C(=O)O)c(Oc2nc(Oc3cccc(-c4cccc(CN)c4)c3)c(F)cc2F)c1	
> 30			NCc1cccc(-c2cccc(Oc3nc(Oc4ccccc4CCC(=O)O)c(F)cc3F)c2)c1	
0.039	> 30	5	Cc1ccc(C(=O)O)c(Oc2nc(Oc3cc(N)cc(-c4cccc(CN)c4)c3)c(F)cc2F)c1	bioavailability [3]: 18%; half-life [4]: 15.6 min; Cmax [5]: 59 ng/mL; Vd [6]: 4.6 L/kg; clearance [7]: 257 mL/min/kg
0.53	> 30	2.9	CN(C)c1ccc(C(=O)O)c(Oc2nc(Oc3cccc(-c4cccc(CN)c4)c3)c(F)c(N(C)C)c2F)c1	
1.3			NCc1cccc(-c2cccc(Oc3nc(Oc4cc([N+](=O)[O-])ccc4C(=O)O)c(F)cc3F)c2)c1	

Compound	IC50 [1] [µM]	IC50 [2] [µM]	IC50 (Plasminogen) [µM]	also measured
Cc1ccc(C(=O)O)c(Oc2nc(Oc3cc(N)cc(-c4cccc(CN)c4)c3)c(F)c(N3CCC(N(C)C)C3)c2F)c1 (stereo unspecified)	0.015	8.5	3	
CN(C)c1ccc(C(=O)O)c(Oc2nc(Oc3cccc(-c4cccc(CN)c4)c3)c(F)c(N3CCOCC3)c2F)c1	0.9	10	2.1	
